Assay results taken from patent US6265603A, “Inhibitors of isoprenyl transferase” (Eisai Co., Ltd., priority 1999, dated 2001).

Key:
H-ras = assay: Inhibition of H-ras prenylation/processing in whole cells (H-ras (61 L) transformed NIH3T3 fibroblasts, Western blot); format: cell-based; conditions: for IC50: Mus musculus; for IC50 / H-ras processing, % inhibition @ 50: H-ras (61 L) transformed NIH3T3 fibroblasts, 24 h, 50 μM lovastatin as 100% reference; for H-ras processing, % inhibition @ 50: @ 50 [μM]
Protocol: The ability of compounds of the invention to inhibit H-ras farnesylation was determined. H-ras (61 L) transformed NIH3T3 fibroblasts were generously provided by C. Der, Univ. N. Carolina. These fibroblasts were treated for 24 h with 50 μM lovastatin or vehicle control or the indicated concentrations of inhibitor. Lovastatin is an HMG-CoA reductase inhibitor. HMG-CoA reductase is an essential enzyme in the cellular synthesis of the prenyl groups with which ras proteins are modified. The cells were lysed in 1% NP-40, 5 mM Tris-HCl (pH 8.0), 5 mM EDTA, 0.1 mM N-tosyl-L-phenylalanine chloromethyl ketone, 0.1 mM N-tosyl-L-lysine chloromethyl ketone, and 1 mM phenylmethylsulfonyl fluoride. The lysate was centrifuged (15000×g, 5 min.) and the supernatant was used as a cell extract. Total protein was separated by SDS-PAGE in 15% acrylamide gel. Processed ras can be differentiated from non-processed ras by its mobility in polyacrylamide gels. After transfer to IMMOBILON P™ membrane (Millipore), the blots were probed with LA069 mouse monoclonal antibody to H-ras (Quality Biotech). All Western blots were developed using ECL chemiluminescent reagents (Amersham) and the relative amounts of farnesylated and non-farnesylated ras were quantitated using the inhibition obtained by 50 μM lovastatin as 100% reference.
Sub-micromolar concentrations are sufficient to inhibit farnesylation of ras proteins in whole cells.

[1] = tested on: H-ras (61 L) transformed NIH3T3 fibroblasts; assay: Inhibition of tumor growth of H-ras (61 L) transformed NIH3T3 xenograft in athymic nude mice; format: in vivo; conditions: 100, 50 and 25 mg/kg i.v. daily for 5 days; measured days 7, 10, 14
Protocol: H-ras (61 L) transformed NIH3T3 fibroblasts were grown in Dulbecco's modified Eagle's medium supplemented with 10% heat-inactivated calf serum. 100 U/mL penicillin, 100 μg/mL streptomycin, and 0.75 mg/mL G418 (GIBCO) and incubated at 37° C. in 5% CO2. Cells were harvested from exponential-phase cultures with trypsin-EDTA, centrifuged at 160×g for 5 min, washed once with 10 mL cold Hank's balanced salt solution (HBSS, GIBCO), and resuspended at a concentration of 1×10^6 cells/mL.
Five week old female athymic nude mice were obtained from SLC (3371-8, Kotoummachi, Hamamatsu-shi, Shizuoka 431-11, Japan) and maintained under pathogen-free conditions. The mice were subcutaneously injected in the lateral flank with 1×10^5 H-ras transformed cells/mouse.
Inhibitor compound 1 was suspended in 5% glucose in a total injection volume of 0.2 mL. Three dosage concentrations were prepared, 100, 50 and 25 mg/kg. Compound 1 was intravenously injected daily in the tail vein for 5 consecutive days, starting the day after the implantation (day 0). The control group was injected with vehicle only. Body weight and tumor dimensions were measured at days 7, 10, and 14. Tumor volume was estimated by the following calculation: tumor volume=(0.5)(length×width×width). At day 14, each mouse was euthanized with CO2 (g), and each tumor was excised and weighed. […]

FTase = FTase (Homo sapiens, UniProt P49354+P49356); assay: In vitro inhibition of FTase-mediated prenylation (recombinant FTase, recombinant H-ras, [3H] farnesylpyrophosphate); format: biochemical; conditions: 15 min, 37° C.; 3 μM recombinant H-ras, 440 nM [3H] farnesylpyrophosphate
Protocol: (§1) The ability of the disclosed inhibitor compounds to inhibit FTase was measured according to a published prenylation assay (Moores et al., J. Biol Chem. 266:14603 (1991)). Recombinant FTase with 3 μM recombinant H-ras and 440 nM [^3 H] farnesylpyrophosphate were used were used. The inhibitors were diluted in assay buffer, and each assay mixture was incubated 15 min. at 37° C. Where inhibition of GGTase I was measured, GGTase I with 5 μM recombinant, H-ras (61 L, CAIL) and 1 mM [^3 H] geranylgeranyl diphosphate were used.
(§2) Nanomolar concentrations of the indicated compounds were sufficient to inhibit farnesylation of ras proteins in vitro. For screening candidate compounds useful for the treatment of ras-associated tumors, the FTase assay is preferred. […] Substitutions which confer GGTase I specificity as taught herein also produced potent inhibitors of GGTase I.

GGTase I = GGTase I (Homo sapiens, UniProt P49354+P53609); assay: In vitro inhibition of GGTase I-mediated prenylation (H-ras (61 L, CAIL), [3H] geranylgeranyl diphosphate); format: biochemical; conditions: 5 μM recombinant H-ras (61 L, CAIL), 1 mM [3H] geranylgeranyl diphosphate
Protocol: as §1, §2

IC50 (FTase) [nM] | IC50 (GGTase I) [nM] | SMILES | IC50 (H-ras) [µM] | other results
– | – | COC(=O)[C@H](CCSC)NC(=O)c1cc(OCC[C@@H](N)CS)ccc1C(C)C [Compound 1] | 0.039 | potency within the series (in words) (H-ras; statement in Formulations section, test not specified): the most potent compound of the series; inhibition of tumor growth / tumor volume (FIG. 1) [1]: inhibition of tumor growth
45 | 1900 | CSCC[C@H](NC(=O)c1ccccc1OC[C@@H](/C=C/[C@@H](N)CS)C(C)C)C(=O)O [Compound 2] | – | –
500 | 1700 | CSCC[C@H](NC(=O)c1cc2ccccc2cc1OC[C@@H](/C=C/[C@@H](N)CS)C(C)C)C(=O)O [Compound 3] | – | –
30 | 1900 | CSCC[C@H](NC(=O)c1cccc(OC[C@@H](/C=C/[C@@H](N)CS)C(C)C)c1)C(=O)O [Compound 4] | – | –
6300 | 40000 | CSCCC(NC(=O)c1ccc(OC[C@@H](/C=C/[C@@H](N)CS)C(C)C)cc1)C(=O)O (stereo partly drawn) [Compound 5] | – | –
1300 | 4200 | CSCC[C@H](NC(=O)c1cc2ccccc2cc1OC/C=C/[C@@H](N)CS)C(=O)O [Compound 6] | – | –
93 | 3000 | CSCC[C@H](NC(=O)c1cccc(OC/C=C/[C@@H](N)CS)c1)C(=O)O [Compound 7] | – | –
890 | > 100000 | CSCC[C@H](NC(=O)c1ccc(OC/C=C/[C@@H](N)CS)cc1)C(=O)O [Compound 8] | – | –
22 | 3800 | CSCC[C@H](NC(=O)c1cc(OC[C@@H](/C=C/[C@@H](N)CS)C(C)C)ccc1C(C)C)C(=O)O [Compound 9] | – | –
21 | 390 | CSCC[C@H](NC(=O)c1cc(OCC[C@@H](N)CS)ccc1C(C)C)C(=O)O [Compound 11] | – | –
4 | 38 | CSCC[C@H](NC(=O)c1cc(OCC[C@@H](N)CS)ccc1-c1ccccc1)C(=O)O [Compound 12] | – | –
15 | 130 | CSCC[C@H](NC(=O)c1cc(OC[C@@H](N)CS)ccc1-c1ccccc1)C(=O)O [Compound 14] | – | –
– | – | COC(=O)C(CCSC)NC(=O)c1ccccc1OC[C@@H](/C=C/[C@@H](N)CS)C(C)C (stereo partly drawn) [Compound 15] | 4.1 | –
– | – | COC(=O)[C@H](CCSC)NC(=O)c1cccc(OC[C@@H](/C=C/[C@@H](N)CS)C(C)C)c1 [Compound 17] | 3.3 | –
– | – | COC(=O)[C@H](CCSC)NC(=O)c1ccc(OC[C@@H](/C=C/[C@@H](N)CS)C(C)C)cc1 [Compound 18] | > 50 | –
– | – | COC(=O)[C@H](CCSC)NC(=O)c1cc2ccccc2cc1OC/C=C/[C@@H](N)CS [Compound 19] | – | H-ras processing, % inhibition @ 50 (H-ras): 46%
– | – | COC(=O)C(CCSC)NC(=O)c1cccc(OC/C=C/[C@@H](N)CS)c1 (stereo partly drawn) [Compound 20] | – | H-ras processing, % inhibition @ 50 (H-ras): 38%
– | – | COC(=O)[C@H](CCSC)NC(=O)c1ccc(OC/C=C/[C@@H](N)CS)cc1 [Compound 21] | > 50 | –
– | – | COC(=O)[C@H](CCSC)NC(=O)c1cc(OC[C@@H](/C=C/[C@@H](N)CS)C(C)C)ccc1C(C)C [Compound 22] | 0.122 | –
– | – | COC(=O)[C@H](CCSC)NC(=O)c1cc(OC[C@@H](/C=C/[C@@H](N)CS)C(C)C)ccc1-c1ccccc1 [Compound 23] | 31 | –
– | – | COC(=O)[C@H](CCSC)NC(=O)c1cc(OCC[C@@H](N)CS)ccc1-c1ccccc1 [Compound 24] | 0.298 | –
– | – | COC(=O)[C@H](CCSC)NC(=O)c1cc(OC[C@@H](N)CS)ccc1C(C)C [Compound 25] | 3.1 | –
– | – | COC(=O)[C@H](CCSC)NC(=O)c1cc(OC[C@@H](N)CS)ccc1-c1ccccc1 [Compound 26] | 3.2 | –
– | – | COC(=O)[C@H](CCSC)NC(=O)c1cc(COC[C@@H](N)CS)ccc1C(C)C [Compound 27] | 0.049 | –
– | – | COC(=O)[C@H](CCSC)N(C)Cc1cc(OCC[C@@H](N)CS)ccc1C(C)C [Compound 28] | – | H-ras processing, % inhibition @ 50 (H-ras): 42%
– | – | COC(=O)[C@H](CCSC)NC(=O)c1cc(OCC[C@@H](C)CS)ccc1C(C)C [Compound 29] | > 50 | –
15 | 930 | CSCC[C@H](NC(=O)c1cc(COC[C@@H](N)CS)ccc1C(C)C)C(=O)O [Compound 30] | – | –
350 | 8900 | CSCC[C@@H](C(=O)O)N(C)Cc1cc(OCC[C@@H](N)CS)ccc1C(C)C [Compound 31] | – | –
470 | 100000 | CSCC[C@H](NC(=O)c1cc(OCC[C@@H](C)CS)ccc1C(C)C)C(=O)O [Compound 32] | – | –
